Assay results taken from patent publication US20250092044A1, “Kinase Inhibitors” (Incyte Corporation, priority 2023, published 2025).

Legend:
[1] = system: TRKA; assay: TRKA Enzymatic Assay; type: biochemical
Protocol: (§1) The kinase assays were carried out at 24° C. temperature in assay buffer (HEPES 50 mM, pH 7.0, NaN3 0.02%, BSA 0.01%, Orthovanadate 0.1 mM, DTT 1 mM, MgCl2 10 mM) in a final volume of 10 μL. Testing compounds were prepared by serial dilution in DMSO and transferred to the plate wells by ECHO liquid handler (Labcyte) with 0.5% DMSO in the final assay. […]. Reactions were initiated by the addition of 5 μL ATP in assay buffer. The final 10 μL kinase reaction consisted of 0.58 nM TRKA, 1 mM ATP, 500 nM TK Substrate-biotin and SEB reagent 62.5 nM in assay buffer. […] After 60 minutes incubation at room temperature, the product activity was determined by measuring the fluorescence at 620 nm and 665 nm on Pherastar microplate reader (BMG Labtech). A ratio was calculated (665/620 nm) for each well. Wells with DMSO only served as the positive controls and wells containing no ATP were used as negative controls. IC50 determination was performed by fitting the curve of percent control activity versus the log of the compound concentration using the Gene data.

[2] = molecular target: TRKA (Homo sapiens (Human), UniProt P04629); assay: TRKA Enzymatic Assay; type: biochemical; settings: 1 mM ATP
TRKA (Homo sapiens (Human), UniProt P04629), sequence (P04629 33-796, species assumed): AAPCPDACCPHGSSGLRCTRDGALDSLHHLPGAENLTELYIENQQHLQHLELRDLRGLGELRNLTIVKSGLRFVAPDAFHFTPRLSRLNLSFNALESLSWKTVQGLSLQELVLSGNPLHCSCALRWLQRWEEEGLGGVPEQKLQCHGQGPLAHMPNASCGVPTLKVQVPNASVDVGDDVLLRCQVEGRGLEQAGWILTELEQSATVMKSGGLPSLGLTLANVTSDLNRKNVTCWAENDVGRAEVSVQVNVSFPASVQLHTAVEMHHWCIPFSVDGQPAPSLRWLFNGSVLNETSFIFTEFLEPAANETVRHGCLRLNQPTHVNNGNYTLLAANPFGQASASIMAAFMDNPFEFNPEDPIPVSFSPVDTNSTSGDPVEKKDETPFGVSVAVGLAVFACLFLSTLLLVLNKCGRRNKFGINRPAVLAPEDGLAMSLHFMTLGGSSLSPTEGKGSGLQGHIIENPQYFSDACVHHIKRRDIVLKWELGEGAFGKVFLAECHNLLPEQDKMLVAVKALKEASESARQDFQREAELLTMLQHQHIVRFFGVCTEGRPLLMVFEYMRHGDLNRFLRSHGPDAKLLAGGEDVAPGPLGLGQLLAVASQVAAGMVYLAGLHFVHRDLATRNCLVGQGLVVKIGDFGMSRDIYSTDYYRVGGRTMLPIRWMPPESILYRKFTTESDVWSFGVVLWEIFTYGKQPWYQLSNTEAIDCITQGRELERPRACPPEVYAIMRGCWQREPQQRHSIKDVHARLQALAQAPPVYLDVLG
Protocol: as §1

[3] = molecular target: pseudo-kinase domain (JH2) of human V617F mutant JAK2 (Homo sapiens (Human), UniProt O60674, F794H/V617F/W659A/W777A); assay: JAK2 LanthaScreen JH2-V617F Binding Assay; settings: read-out: JH2 V617F Bind IC50
pseudo-kinase domain (JH2) of human V617F mutant JAK2, sequence (O60674 536-812 V617F/W659A/W777A/F794H): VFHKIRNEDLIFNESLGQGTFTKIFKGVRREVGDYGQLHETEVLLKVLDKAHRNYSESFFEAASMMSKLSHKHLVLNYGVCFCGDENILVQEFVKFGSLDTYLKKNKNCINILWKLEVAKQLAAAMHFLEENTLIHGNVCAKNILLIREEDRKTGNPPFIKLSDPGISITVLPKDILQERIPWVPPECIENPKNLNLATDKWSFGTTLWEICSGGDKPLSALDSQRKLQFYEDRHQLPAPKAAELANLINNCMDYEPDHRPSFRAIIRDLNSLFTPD
Protocol: JAK2 JH2-V617F binding assay utilizes pseudo-kinase domain (JH2, amino-acids 536-812 with 3 surface mutations W659A, W777A, F794H) of human V617F mutant JAK2 expressed as C-terminal His-Avi-tagged, biotinylated protein in a baculovirus expression system (BPS Bioscience, Catalog #79498). The assay was conducted in black 384-well polystyrene plates in a final reaction volume of 20 μL. JAK2 JH2-V617F (0.26 nM) was incubated with compounds (100 nL serially diluted in DMSO) in the presence of 50 nM Fluorescent JAK2-JH2 Tracer (MedChem Express Catalog #HY-102055) and 0.25 nM Streptavidin-Tb cryptate (Cisbio Part #610SATLB) in assay buffer (50 mM Tris, pH=7.5, 10 mM MgCl2, 0.01% Brij-35, 0.1% BSA, 1 mM EGTA, 5% Glycerol and 5 mM DTT). Non-specific binding was accessed in the presence of 2 mM ATP. After incubation for 1 hour at 25° C., LanthaScreen signals were read on a PHERAstar FS plate reader (BMG LABTECH). Data was analyzed with IDBS XLfit and GraphPad Prism 5.0 software using a four parameter dose response curve to determine IC50 for each compound.

[4] = system: FLT3; assay: FLT3 Enzymatic Assay; type: biochemical
Protocol: (§2) The kinase assays were carried out at room temperature in assay buffer (HEPES 50 mM, pH 7.0, NaN3 0.02%, BSA 0.01%, Orthovanadate 0.1 mM, DTT 1 mM, MgCl2 10 mM) in a final volume of 10 μL. Testing compounds were prepared by serial dilution in DMSO and transferred to the plate wells by ECHO liquid handler (Labcyte) with 0.5% DMSO in the final assay. […]. Reactions were initiated by the addition of 5 μL ATP in assay buffer. The final 10 μL kinase reaction consists of 0.011 nM FLT3, 1 mM ATP, 500 nM TK Substrate-biotin and SEB reagent 62.5 nM in assay buffer. […] The plates were then sealed and centrifuged at 1800 rpm for 2 minutes. After 60 minutes incubation at room temperature, the product activity was determined by measuring the fluorescence at 620 nm and 665 nm on Pherastar microplate reader (BMG Labtech). A ratio is calculated (665/620 nm) for each well. Wells with DMSO only were served as the positive controls and wells containing no ATP were used as negative controls. IC50 determination was performed by fitting the curve of percent control activity versus the log of the compound concentration using the GraphPad Prism 7.0 software.

[5] = molecular target: FLT3 (Homo sapiens (Human), UniProt P36888); assay: FLT3 Enzymatic Assay; type: biochemical; settings: 1 mM ATP
FLT3 (Homo sapiens (Human), UniProt P36888), sequence (P36888 27-993, species assumed): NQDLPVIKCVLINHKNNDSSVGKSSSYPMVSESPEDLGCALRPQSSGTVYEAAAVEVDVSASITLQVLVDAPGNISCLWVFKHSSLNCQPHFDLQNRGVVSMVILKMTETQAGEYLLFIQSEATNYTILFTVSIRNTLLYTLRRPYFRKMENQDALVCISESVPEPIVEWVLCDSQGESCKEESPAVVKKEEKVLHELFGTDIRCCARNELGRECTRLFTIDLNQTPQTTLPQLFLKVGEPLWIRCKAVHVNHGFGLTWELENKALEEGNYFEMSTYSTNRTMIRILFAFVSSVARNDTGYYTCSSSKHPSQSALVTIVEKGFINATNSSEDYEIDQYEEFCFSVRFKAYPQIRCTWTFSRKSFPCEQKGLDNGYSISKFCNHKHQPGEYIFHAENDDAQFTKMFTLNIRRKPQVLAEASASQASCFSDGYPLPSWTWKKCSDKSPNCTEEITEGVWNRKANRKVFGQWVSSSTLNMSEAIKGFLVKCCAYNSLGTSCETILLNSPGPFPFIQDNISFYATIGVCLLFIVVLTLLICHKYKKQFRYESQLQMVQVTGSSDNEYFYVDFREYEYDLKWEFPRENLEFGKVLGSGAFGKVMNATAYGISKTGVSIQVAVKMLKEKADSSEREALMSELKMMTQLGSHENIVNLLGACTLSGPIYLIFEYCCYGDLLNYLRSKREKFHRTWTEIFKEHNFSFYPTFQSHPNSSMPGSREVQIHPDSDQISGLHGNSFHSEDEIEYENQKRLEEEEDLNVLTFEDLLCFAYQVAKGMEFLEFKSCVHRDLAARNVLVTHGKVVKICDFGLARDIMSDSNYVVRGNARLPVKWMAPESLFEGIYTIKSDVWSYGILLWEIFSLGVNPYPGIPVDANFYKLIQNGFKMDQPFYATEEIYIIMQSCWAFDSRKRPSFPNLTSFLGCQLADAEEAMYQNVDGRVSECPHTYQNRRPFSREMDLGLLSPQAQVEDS
Protocol: as §2

[6] = system: STAT5 (Tyr694) phosphorylation in SET-2 cells; assay: STAT5 (Tyr694) Phosphorylation Cell Based Assay; settings: Homo sapiens, 2 hours, read-out: SET2 IC50
Protocol: SET-2 cells was purchased from DSMZ (Germany). RPMI1640 medium, Fetal Bovine Serum and 384-white sold flat-bottom small volume plate were purchased from Thermo Fisher Scientific (Waltham, MA). Phospho-STAT5 (Tyr694) HTRF kit was purchased from Perkin Elmer (Waltham, MA).
SET-2 cells were cultured in RPMI media with 20% FBS at 37° C. in humidified incubator supplied with 5% CO2. On the day of assay, the cells were centrifuged to remove the culture media and resuspended with prewarmed RPMI with 10% FBS. Testing compounds were prepared by serial dilution in DMSO and 50 nL/well test compounds were transferred to the 384 white low volume cell culture plate (Greiner Bio-one) by ECHO liquid handler (Labcyte). The cells were then dispensed with Multidrop (Thermo Fisher, Waltham, MA) at 10 μL/well (7×10^6 cells/mL) with 0.5% DMSO in the final assay. After the treated cells were incubated for 2 hours at 37° C./5% CO2 incubator, 4 μL/well supplemented lysis buffer (100× blocking buffer diluted 25 fold in 4× lysis buffer, Perkin Elmer) were added and incubated at room temperature for 90 min on orbital shaker at 600 rpm. Phospho-STAT5 Cryptate antibody and Phospho-STAT5 d2 antibody (1:1 vol/vol) were premixed and diluted 20 fold with in the detection buffer (Perkin Elmer). 4 μL of the premixed antibody solution were added to each well followed with 24 hours incubation at room temperature on orbital shaker at 600 rpm. The product activity was determined by measuring the fluorescence at 620 nm and 665 nm on Pherastar microplate reader (BMG Labtech). A ratio is calculated (665/620) for each well. Wells with DMSO only served as the positive controls and wells containing high concentration of control compound were used as negative controls. IC50 determination was performed by fitting the curve of percent control activity versus the log of the compound concentration using the GraphPad Prism 7.0 software.

[7] = molecular target: catalytic domain (JH1) of human JAK2 (Homo sapiens (Human), UniProt O60674); assay: JAK2 LanthaScreen JH1 Binding Assay; settings: read-out: JH1 Bind IC50
catalytic domain (JH1) of human JAK2, sequence (O60674 826-1132): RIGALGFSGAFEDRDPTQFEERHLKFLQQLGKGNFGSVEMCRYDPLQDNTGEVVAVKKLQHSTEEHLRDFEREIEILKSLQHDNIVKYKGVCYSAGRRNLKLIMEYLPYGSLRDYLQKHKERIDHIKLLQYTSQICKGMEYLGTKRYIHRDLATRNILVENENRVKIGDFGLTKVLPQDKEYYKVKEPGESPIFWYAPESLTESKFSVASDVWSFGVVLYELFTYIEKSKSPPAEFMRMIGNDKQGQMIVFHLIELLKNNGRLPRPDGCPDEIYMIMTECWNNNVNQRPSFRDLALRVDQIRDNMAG
Protocol: JAK2 JH1 binding assay utilizes catalytic domain (JH1, amino acids 826-1132) of human JAK2 expressed as N-terminal FLAG-tagged, biotinylated protein in a baculovirus expression system (Carna Biosciences, Product #08-445-20N). The assay was conducted in black 384-well polystyrene plates in a final reaction volume of 20 μL. JAK2 JH1 (1.5 nM) was incubated with compounds (100 nL serially diluted in DMSO) in the presence of 50 nM fluorescent JAK2-JH1 tracer and 0.5 nM Streptavidin-Tb cryptate (Cisbio Part #610SATLB) in assay buffer (50 mM Tris, pH=7.5, 10 mM MgCl2, 0.01% Brij-35, 0.1% BSA, 1 mM EGTA, 5% Glycerol and 5 mM DTT). Non-specific binding was accessed in the presence of 2 mM ATP. After incubation for 2 hours at 25° C., LanthaScreen signals were read on a PHERAstar FS plate reader (BMG LABTECH). Data was analyzed with IDBS XLfit and GraphPad Prism 5.0 software using a four parameter dose response curve to determine IC50 for each compound.

SMILES | Selectivity TRKA/JH2 V617F [1] | IC50 [2] | IC50 [3] | Selectivity FLT3/JH2 V617F [4] | IC50 [5] | IC50 [6] | IC50 [7]
Cn1cc(-c2[nH]c3ncc4c(c3c2-c2ccc3c(cnn3C)c2)n([C@H]2CC[C@@H](CC#N)CC2)c(=O)n4C)cn1 [Comparative Example C, reference compound] | * (selectivity of ≤500-fold) | < 25 nM | ≤ 10 nM | * (selectivity of ≤500-fold) | < 25 nM | – | –
CCn1c(=O)n(C2CCCC2)c2c3cc(-c4ccc(CN5CCC(S(C)(=O)=O)CC5)cc4)[nH]c3ncc21 [Comparative Example G, reference compound] | – | – | > 1000 nM | – | – | – | –
Cn1c(=O)n(C2CCCC2)c2c3c(-c4ccccc4)c(-c4ccc(CN5CCC(S(C)(=O)=O)CC5)cc4)[nH]c3ncc21 [Comparative Example H, reference compound] | * (selectivity of ≤500-fold) | 25 to 250 nM | ≤ 10 nM | * (selectivity of ≤500-fold) | 25 to 250 nM | 300 to 800 nM | –
Cn1ncc2cc(-c3c(-c4ccc(CN5CCC(S(C)(=O)=O)CC5)cc4)[nH]c4ncc5c(c34)n(C3CCCC3)c(=O)n5C)ccc21 [Comparative Example I, reference compound] | * (selectivity of ≤500-fold) | < 25 nM | ≤ 10 nM | * (selectivity of ≤500-fold) | < 25 nM | 300 to 800 nM | –
CNC(=O)c1ccc(-c2[nH]c3ncc4c(c3c2-c2cccc(F)c2)n([C@@H]2CC[C@@H](NC(=O)OC)C2)c(=O)n4C)cc1F [Example 1, Methyl ((1R,3R)-3-(7-(3-fluoro-4-(methylcarbamoyl)phenyl)-8-(3-fluorophenyl)-3-methyl-2-oxo-3,6-dihydroimidazo[4,5-d]pyrrolo[2,3-b]pyridin-1(2H)-yl)cyclopentyl)carbamate] | – | – | ≤ 10 nM | – | – | > 800 nM | > 1000 nM
COC(=O)N[C@@H]1CC[C@@H](n2c(=O)n(C)c3cnc4[nH]c(-c5ccc(C(=O)NC(C)C)c(F)c5)c(-c5cccc(F)c5)c4c32)C1 [Example 2, Methyl ((1R,3R)-3-(7-(3-fluoro-4-(isopropylcarbamoyl)phenyl)-8-(3-fluorophenyl)-3-methyl-2-oxo-3,6-dihydroimidazo[4,5-d]pyrrolo[2,3-b]pyridin-1(2H)-yl)cyclopentyl)carbamate] | – | – | ≤ 10 nM | – | – | > 800 nM | > 1000 nM
CNC(=O)c1c(F)cc(-c2[nH]c3ncc4c(c3c2-c2cccc(F)c2)n([C@@H]2CC[C@@H](NC(=O)OC)C2)c(=O)n4C)cc1F [Example 3, Methyl ((1R,3R)-3-(7-(3,5-difluoro-4-(methylcarbamoyl)phenyl)-8-(3-fluorophenyl)-3-methyl-2-oxo-3,6-dihydroimidazo[4,5-d]pyrrolo[2,3-b]pyridin-1(2H)-yl)cyclopentyl)carbamate] | – | – | ≤ 10 nM | – | – | > 800 nM | > 1000 nM
COC(=O)N[C@@H]1CC[C@@H](n2c(=O)n(C)c3cnc4[nH]c(-c5cc(F)c(C(=O)NC6CC6)c(F)c5)c(-c5cccc(F)c5)c4c32)C1 [Example 4, Methyl ((1R,3R)-3-(7-(4-(cyclopropylcarbamoyl)-3,5-difluorophenyl)-8-(3-fluorophenyl)-3-methyl-2-oxo-3,6-dihydroimidazo[4,5-d]pyrrolo[2,3-b]pyridin-1(2H)-yl)cyclopentyl)carbamate] | – | – | ≤ 10 nM | – | – | > 800 nM | > 1000 nM
COC(=O)N[C@@H]1CC[C@@H](n2c(=O)n(C)c3cnc4[nH]c(-c5ccc(C(=O)N6C7CCC6COC7)c(OC)c5)c(-c5cccc(F)c5)c4c32)C1 [Example 5, Methyl ((1R,3R)-3-(7-(4-(3-oxa-8-azabicyclo[3.2.1]octane-8-carbonyl)-3-methoxyphenyl)-8-(3-fluorophenyl)-3-methyl-2-oxo-3,6-dihydroimidazo[4,5-d]pyrrolo[2,3-b]pyridin-1(2H)-yl)cyclopentyl)carbamate] | ** (selectivity of >500-fold to ≤1500-fold) | 250 to 1250 nM | ≤ 10 nM | ***** (selectivity of >5000-fold to ≤12500-fold) | 1250 to 2500 nM | > 800 nM | > 1000 nM
COC(=O)N[C@@H]1CC[C@@H](n2c(=O)n(C)c3cnc4[nH]c(-c5ccc(C(=O)N6CC(OC)C6)c(F)c5)c(-c5ccc6c(cnn6C(C)C)c5)c4c32)C1 [Example 17, Methyl ((1R,3R)-3-(7-(3-fluoro-4-(3-methoxyazetidine-1-carbonyl)phenyl)-8-(1-isopropyl-1H-indazol-5-yl)-3-methyl-2-oxo-3,6-dihydroimidazo[4,5-d]pyrrolo[2,3-b]pyridin-1(2H)-yl)cyclopentyl)carbamate] | – | – | ≤ 10 nM | – | – | > 800 nM | > 1000 nM
